Reference: patent US8486962B2, “Antifungal agents” (F2G Ltd., priority 2005, dated 2013)
Values after ≈ are worked out from the molar mass of the structure shown.

How the values were obtained:
Assay type in all cases: cell-based
Aspergillus flavus = test: MIC, YAG medium, Aspergillus flavus; conditions: Aspergillus flavus; YAG medium; read-out: MIC A Flavus 01
Experimental: (§1) Measurement of Minimum Inhibitory Concentrations (MICs)
(§2) Between 1 and 5 mgs of compound were accurately weighed out into a sterile Eppendorf tube. The compound was dissolved in DMSO to give a solution containing 5 mg/ml. Tubes were stored at −20° C. until required.
(§3) On the day of testing thawed solutions were vortex mixed to ensure homogeneity. 30 μl of solution was removed and added to 570 μl of sterile water in a separate sterile Eppendorf. The thoroughly mixed solution was used to prepare a series of doubling dilutions in water, in a deep well plate. Eleven replicate plates were prepared using a Minitrak by aspirating 20 μl from each well into eleven clear polystyrene 96 well plates.
(§4) Spores of Aspergillus spp (Aspergillus fumigatus, Aspergillus terreus, Aspergillus niger and Aspergillus flavus) were harvested from cultures grown on Sabarauds agar for 5 days, and resuspended in PBS/Tween 80 to approx 1×10^7 cfu/ml Other filamentous fungi (Fusarium solani, Scedosporium spp., Trichophyton spp., Absidia corymbifera), were grown on Sabarauds agar for 2-10 days and spores/hyphae resuspended in PBS/Tween to give approx 1×10^7 cfU/ml. Candida species (Candida albicans, Candida glabrata, Candida krusei, Candida parapsilosis and Candida tropicalis) were grown on Sabarauds agar, cells were harvested from the agar using a sterile loop and resuspended in PBS/Tween 80 to approx 1×10^6 cfu/ml. Each organism suspension was diluted in RPMI medium, containing 2% glucose and 0.135M MOPS buffer (pH7.0) to 2×10^4 cfu/ml for Aspergillus spp and other filamentous fungi and 2×10^3 cfu/ml for yeast. 80 μl of an organism suspension was added to each well of the plate containing drug dilutions.
(§5) This produced MIC plates with a drug range 50-0.05 mg/L and organism inocula of 1-2×10^4 cfu/ml for Aspergillus spp and other filamentous fungi and 1-2×10^3 cfu/ml for yeasts. All plates were incubated for 24-48 hrs at 35° C. Growth was assessed by monitoring the optical density at 485 nm for each well. The MIC of a compound is the lowest drug concentration that inhibits growth of an organism by >80% compared with a drug free control. MICs are recorded as mg/L. Other growth media can be used for susceptibility testing, and the activity of the described compounds can also be assessed in a medium comprising, 1% glucose, 1% ammonium chloride and 0.5% yeast extract (YAG medium). To perform MIC tests in this medium, dilutions of compounds are prepared in microtitre plates as described above. Fungal strains to be tested are grown and harvested in an identical manner to that described above, each organism suspension is then diluted in YAG medium to 2×10^4 cfu/ml for Aspergillus spp and other filamentous fungi and 2×10^3 cfu/ml for yeast. 80 μl of an organism suspension was added to each well of the plate containing drug dilutions. This produced MIC plates with a drug range 50-0.05 mg/L and organism inocula of 1-2×10^4 cfu/ml for Aspergillus spp and other filamentous fungi and 1-2×10^3 cfu/ml for yeasts. All plates were incubated for 24 hrs at 35° C. Growth was assessed by monitoring the optical density at 485 nm for each well. The MIC of a compound is the lowest drug concentration that inhibits growth of an organism by >70% compared with a drug free control. MICs are recorded as mg/L. In cases where the MIC of an organism is […]0.05 mg/L the MIC is repeated using a concentration range of 0.5-0.0005 mg/L. MIC tests in YAG medium have more clear-cut endpoints and have slightly lower MICS than those performed in RPMI medium.
(§6) The following organisms were tested: Aspergillus fumigatus AF293 and Aspergillus fumigatus AF210, Aspergillus niger, Aspergillus terreus, Aspergillus favus, Candida albicans, Candida krusei, Candida tropicalis, Candida glabrata, Candida parapsilosis, Trichophyton rubrum, Trichophyton mentagrophytes, Scedosporium prolificans, Scedosporium apiospermum, Absidia corymbifera, Fusarium solani.

[1] = test system: Aspergillus fumigatus AF293; test: MIC, YAG medium, Aspergillus fumigatus AF293; conditions: Aspergillus fumigatus, AF293; YAG medium; read-out: MIC A Fum. 293
Experimental: as §1, §2, §3, §4, §5, §6

Aspergillus niger = test: MIC, YAG medium, Aspergillus niger; conditions: Aspergillus niger; YAG medium; read-out: MIC A Niger 1
Experimental: as §1, §2, §3, §4, §5, §6

Aspergillus terreus = test: MIC, YAG medium, Aspergillus terreus; conditions: Aspergillus terreus; YAG medium; read-out: MIC A Terreus 4
Experimental: as §1, §2, §3, §4, §5, §6

[2] = test system: Aspergillus fumigatus AF210; test: MIC, YAG medium, Aspergillus fumigatus AF210; conditions: Aspergillus fumigatus, AF210; YAG medium; read-out: MIC A Fum. 210
Experimental: as §1, §2, §3, §4, §5, §6

SMILES	MIC (Aspergillus flavus) [µg/mL]	MIC [1] [µg/mL]	MIC (Aspergillus niger) [µg/mL]	MIC (Aspergillus terreus) [µg/mL]	MIC [2] [µg/mL]
COC(=O)c1ccc(OC(=O)C(=O)c2c(-c3ccccc3)cc3ccccn23)cc1 [Example 177, 4-[2-Oxo-2-(2-phenyl-indolizin-3-yl)-acetoxy]-benzoic acid methyl ester]	> 50	50 (≈ 125 µM)	6.25 (≈ 15.6 µM)	6.25 (≈ 15.6 µM)	> 50
O=C(NC1CCCCC1)C(=O)c1c(-c2ccccc2)cc2ccccn12 [Example 178, N-Cyclohexyl-2-oxo-2-(2-phenyl-indolizin-3-yl)-acetamide]	1.6 (≈ 4.62 µM)	0.8 (≈ 2.31 µM)	0.2 (≈ 0.577 µM)	0.1 (≈ 0.289 µM)	0.8 (≈ 2.31 µM)
CNC(=O)C(=O)c1c(-c2ccccc2)cc2ccccn12 [Example 179, N-Methyl-2-oxo-2-(2-phenyl-indolizin-3-yl)-acetamide]	25 (≈ 89.8 µM)	12.5 (≈ 44.9 µM)	> 50	6.25 (≈ 22.5 µM)	12.5 (≈ 44.9 µM)
CC(C)NC(=O)C(=O)c1c(-c2ccccc2)cc2ccccn12 [Example 180, N-Isopropyl-2-oxo-2-(2-phenyl-indolizin-3-yl)-acetamide]	> 50	6.25 (≈ 20.4 µM)	3.1 (≈ 10.1 µM)	6.25 (≈ 20.4 µM)	6.25 (≈ 20.4 µM)
COCCNC(=O)C(=O)c1c(-c2ccccc2)cc2ccccn12 [Example 181, N-(2-Methoxy-ethyl)-2-oxo-2-(2-phenyl-indolizin-3-yl)-acetamide]	25 (≈ 77.6 µM)	50 (≈ 155 µM)	25 (≈ 77.6 µM)	25 (≈ 77.6 µM)	25 (≈ 77.6 µM)

Next, values leading:

MIC (Aspergillus flavus) [µg/mL]	MIC [1] [µg/mL]	MIC (Aspergillus niger) [µg/mL]	MIC (Aspergillus terreus) [µg/mL]	MIC [2] [µg/mL]	SMILES
> 50	> 50	> 50	0.2 (≈ 0.564 µM)	> 50	O=C(NCc1ccccc1)C(=O)c1c(-c2ccccc2)cc2ccccn12 [Example 182, N-Benzyl-2-oxo-2-(2-phenyl-indolizin-3-yl)-acetamide]
> 50	> 50	> 50	12.5 (≈ 42.8 µM)	25 (≈ 85.5 µM)	CN(C)C(=O)C(=O)c1c(-c2ccccc2)cc2ccccn12 [Example 183, N,N-Dimethyl-2-oxo-2-(2-phenyl-indolizin-3-yl)-acetamide]
50 (≈ 150 µM)	25 (≈ 75.2 µM)	0.8 (≈ 2.41 µM)	6.25 (≈ 18.8 µM)	6.25 (≈ 18.8 µM)	O=C(C(=O)N1CCCCC1)c1c(-c2ccccc2)cc2ccccn12 [Example 184, 1-(2-Phenyl-indolizin-3-yl)-2-piperidin-1-yl-ethane-1,2-dione]
25 (≈ 70.5 µM)	12.5 (≈ 35.3 µM)	3.1 (≈ 8.75 µM)	12.5 (≈ 35.3 µM)	3.1 (≈ 8.75 µM)	CN(C(=O)C(=O)c1c(-c2ccccc2)cc2ccccn12)c1ccccc1 [Example 186, N-Methyl-2-oxo-N-phenyl-2-(2-phenyl-indolizin-3-yl)-acetamide]
> 50	> 50	3.1 (≈ 8.72 µM)	> 50	> 50	CN(C(=O)C(=O)c1c(-c2cccnc2)cc2ccccn12)c1ccccc1 [Example 187, N-Methyl-2-oxo-N-phenyl-2-(2-pyridin-3-yl-indolizin-3-yl)-acetamide]
3.1 (≈ 8.41 µM)	1.6 (≈ 4.34 µM)	0.4 (≈ 1.09 µM)	0.8 (≈ 2.17 µM)	0.8 (≈ 2.17 µM)	Cc1ccc(NC(=O)C(=O)c2c(-c3ccccc3)cc3cccc(C)n23)cc1 [Example 188, 2-(5-Methyl-2-phenyl-indolizin-3-yl)-2-oxo-N-p-tolyl-acetamide]
